Paper PMC9785542, “Discovery of 1-Benzhydryl-Piperazine-Based HDAC Inhibitors with Anti-Breast Cancer Activity: Synthesis, Molecular Modeling, In Vitro and In Vivo Biological Evaluation” (Pharmaceutics, 2022)

Tests used:
MDA-MB-231 cells [1] = assay: Cell cycle analysis, propidium iodide flow cytometry; format: cell-based, human; conditions: IC50 concentration; for percentage of cells in S phases: 48 h
Description: MDA-MB-231 cells were treated with tested compounds for specified time courses. After treatment, examined cells were washed in cold PBS and incubated for 30 min in 96% ethanol on ice, centrifuged, and incubated with 80 μL RNase A ([…]) and 50 μL propidium iodide (50 μg/mL) for 30 min at 37 °C. The cell cycle was analyzed by FACS Calibur E440 (Becton Dickinson) flow cytometer and Cell Quest software. Results are presented as a percentage of cell cycle phases.

[2] = target: Human recombinant HDAC-3/NcoR2 (Homo sapiens, UniProt O15379); assay: HDAC-Glo I/II bioluminogenic enzyme assay, HDAC3; format: biochemical; design: purchased BPS Bioscience 50003; conditions: mean ± SD of three independent experiments; read-out: HDAC Inhibition, IC50 ± SD, HDAC3
MDA-MB-231 tumor spheres = assay: 3D tumor sphere model, MTT and imaging; format: cell-based, human; conditions: for tumor sphere viability: 50 µM, 72 h, formed spheres
Description: MDA-MB-231 cells were seeded at a cell density of 1000 c/w in 100 μL of DMEM containing 10% FCS in a low-attachment NunclonSphera 96-well ultra-low attachment plate (Thermo Scientific Nunc™, Rochester, NY, USA), to form multicellular tumor spheres, for 4 days. The formation and growth of tumor spheres were examined and imaged with an Olympus CKX53 microscope, using a 10× objective. MDA-MB-231 tumor spheres were treated by carefully adding 50 μL of the medium with fresh nutrient medium for control spheres or with compound-supplemented medium (50 μM) for treated spheres for another 72 h. The cytotoxicity of compounds toward the MDA-MB-231 tumor spheres was investigated by MTT assay.
The formation and growth of tumor spheroids were examined and imaged with an Olympus CKX53 microscope, using 4x objective. The cytotoxicity of compounds toward the MDA-MB-231 tumor spheroids was investigated by MTT assay.

MDA-MB-231 cells [3] = assay: Matrigel invasion assay; format: cell-based, human; conditions: 24 h; 5 μM 8b, 10 μM 9b
Description: To determine MDA-MB-231 cell migration and invasion cell capacities, Corning® Costar® Transwell® cell culture inserts with 8.0 μm pore polycarbonate filters (Sigma Aldrich, CLS3464) and Corning™ BioCoat™ Matrigel™ Invasion Chamber with Corning Matrigel Matrix™ cell culture inserts (Thermo fisher scientific, Waltham, MA, USA) respectively were used. Briefly, 6 × 10^4 cells in 200 μL were seeded in the upper chamber and the bottom chamber was filled with 800 μL of medium. After 24 h under indicated treatments, the remaining cells in the upper chamber were gently removed with a cotton swab, moistened with medium, and the inserts were carefully washed twice with 37 °C warmed PBS. Then, attached cells at the bottom side of the membrane were fixed by immersing in ice cold methanol for 2 min and stained with 0.1% crystal violet for 15 min at room temperature. Stained cells were photographed and quantified using NIH ImageJ software.

[4] = Acute and developmental toxicity in zebrafish embryos; format: in vivo, Danio rerio; conditions: wild type (AB), zebrafish (Danio rerio), in vivo, other: exposure of embryos in E3 medium, evaluated at 120 hpf; for LC50: embryos treated at 6 hpf; for EC50: teratogenicity, cardiotoxicity, hepatotoxicity, treated at 6 hpf
Description: (§1) Embryos of wild type (AB) and transgenic Tg(fli1:EGFP) and Tg(-2.8fabp10a:EGFP) zebrafish (Danio rerio) lines were kindly provided by Dr. Ana Cvejić (Wellcome Trust Sanger Institute, Cambridge, UK) and raised to adult stage in a temperature- and light-controlled zebrafish facility at 28 °C and standard 14–10 h light–dark photoperiod. Adult fish were regularly fed with commercial dry food (SDS300 granular food; Special Diet Services, Essex, UK; and TetraMinTM flakes, Tetra, Melle, Germany) twice per day and Artemia nauplii daily. All experiments involving zebrafish were performed in compliance with the European directive 2010/63/EU and the ethical guidelines of the Guide for Care and Use of Laboratory Animals of the Institute of Molecular Genetics and Genetic Engineering, University of Belgrade.
(§2) Toxicity evaluation of the tested compounds in the zebrafish model was carried out following the general rules of the OECD Guidelines for the Testing of Chemicals (OECD, 2013, Test No. 236), and procedures described in the literature. Briefly, wild type (AB) zebrafish produced by pair-wise mating were collected, washed of debris, and distributed into 24-well plates containing 10 embryos/well and 1 mL of E3 medium (5 mM NaCl, 0.17 mM KCl, 0.33 mM CaCl2, and 0.33 mM MgSO4·7H2O in distilled water), and raised at 28 °C.
(§3) To assess acute (lethality), inner organ, and developmental (teratogenicity) toxicity, the embryos at the 6 h post-fertilization (hpf) stage were treated with six different concentrations of each tested compound (100, 50, 25, 12.5, 6.25, and 3.13 µM). Stock solutions of test substances were made in DMSO. Embryo water and DMSO (0.25%) were used as negative and […] controls, respectively. The experiment was performed three times using 20 embryos per concentration. Treated embryos were inspected for 22 toxicological parameters (Table S2) every day by 120 hpf upon a stereomicroscope (Carl Zeiss™ Stemi 508 doc Stereomicroscope, Jena, Germany). Dead embryos were discarded every 24 h. At 120 hpf, embryos were anesthetized by addition of 0.1% (w/v) tricaine solution (Sigma-Aldrich, St. Louis, MO, USA), photographed, and killed by freezing at −20 °C for ≥24 h.

[5] = test system: zebrafish (Danio rerio) embryos; assay: as above; format: in vivo; conditions: 50 µM
Description: as §1, §2, §3

MCF-7 cells = assay: Wound healing assay; format: cell-based; conditions: Homo sapiens, MCF7, 24 h, read-out: inhibition of wound closure compared to control
Description: To determine MCF-7 cell migration properties, 1 × 10^5 cells were seeded in 24-well plates and cultured until confluent. Then, cell monolayers were scratched using a sterile 200 μL pipette tip, and cell cultures were allowed to grow for 24 h under the indicated treatments. At the end of incubation period, culture medium was removed and wells were washed twice with PBS, then, cells were fixed with ice-cold methanol and stained with 0.1% crystal violet. In addition, cell monolayers were fixed and stained just after scratching to represent zero time migration. Finally, cell migration into the scratch area was documented by inverted light microscopy and quantified using NIH ImageJ software.

Chain of Human recombinant HDAC-3/NcoR2 (O15379 whole entry): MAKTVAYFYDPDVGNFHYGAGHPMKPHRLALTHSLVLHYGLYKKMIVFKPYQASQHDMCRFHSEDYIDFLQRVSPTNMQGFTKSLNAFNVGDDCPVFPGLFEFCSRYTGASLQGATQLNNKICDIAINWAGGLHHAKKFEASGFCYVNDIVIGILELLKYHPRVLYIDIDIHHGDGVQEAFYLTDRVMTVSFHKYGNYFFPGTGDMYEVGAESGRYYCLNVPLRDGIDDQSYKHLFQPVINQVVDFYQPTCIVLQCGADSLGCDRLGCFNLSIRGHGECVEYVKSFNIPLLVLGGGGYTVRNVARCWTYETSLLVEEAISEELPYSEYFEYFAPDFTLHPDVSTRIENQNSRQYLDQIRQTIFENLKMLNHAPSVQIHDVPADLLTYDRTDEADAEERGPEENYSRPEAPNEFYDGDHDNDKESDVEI
Chain of Human recombinant HDAC-3/NcoR2 (Q9Y618 395-489 partner limits assumed): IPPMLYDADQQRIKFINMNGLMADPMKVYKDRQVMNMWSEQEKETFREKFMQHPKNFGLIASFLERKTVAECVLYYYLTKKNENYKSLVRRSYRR

O=C(CCCCCCN1CCN(C(c2ccccc2)c2ccccc2)CC1)NO [Compound 7b, 7-(4-(diphenylmethyl)-piperazin-1-yl)-N-hydroxyheptanamide]
percentage of cells in the G2/M phase (MDA-MB-231 cells [1]; 24 h): slight increase | percentage of cells in S phases (MDA-MB-231 cells [1]): increased | IC50 [2]: 0.267 ± 0.019 µM | tumor sphere viability (MDA-MB-231 tumor spheres; MTT): did not exhibit significant cytotoxic effects | sphere formation (MDA-MB-231 tumor spheres; co-culture 4 d, at higher concentrations): inhibit sphere formation to some extent

O=C(CCCCCCCN1CCN(C(c2ccccc2)c2ccccc2)CC1)NO [Compound 8b, 8-(4-(diphenylmethyl)-piperazin-1-yl)-N-hydroxyoctanamide]
anti-invasive property (% compared to control) (MDA-MB-231 cells [3]): 59% | percentage of cells in the G2/M phase (MDA-MB-231 cells [1]; 24 h): slight increase | percentage of cells in S phases (MDA-MB-231 cells [1]): increased | IC50 [2]: 0.207 ± 0.014 µM | LC50 [4]: > 100 µM | EC50 [4]: 79.5 µM | embryos with teratogenicity, cardio- or hepatotoxicity [5]: none | IC50 (MDA-MB-231 tumor spheres; Homo sapiens, MDA-MB-231, spheres formed 4 d, treated 72 h, MTT): 50 µM | sphere formation and spheres viability (MDA-MB-231 tumor spheres; co-culture 50 μM, 4 d in sphere culture conditions): significantly inhibited

O=C(NO)c1ccc(CN2CCN(C(c3ccccc3)c3ccccc3)CC2)cc1 [Compound 9b, 4-(4-(diphenylmethyl)-piperazin-1-ylmethyl)-N-hydroxy-benzamide]
anti-invasive property (% compared to control) (MDA-MB-231 cells [3]): did not reduce | inhibition at 10 µM (MCF-7 cells): 63.9% | percentage of cells in the S phase (MDA-MB-231 cells [1]; 24 h): increased | percentage of cells in S phases (MDA-MB-231 cells [1]): increased | IC50 [2]: 3.47 ± 0.121 µM | LC50 [4]: > 100 µM | EC50 [4]: 53.8 µM | embryos with teratogenicity, cardio- or hepatotoxicity [5]: 32% | tumor sphere viability (MDA-MB-231 tumor spheres; MTT): did not exhibit significant cytotoxic effects
